Experimental data: article PMC12650265 (The Journal of Experimental Medicine, 2025)
Entries after “also recorded” stand apart in the source; their conditions may differ.

Columns and labels:
[1] = tested on: SKW-3-DGB129 line; experiment: SKW-3 reporter T cell activation (CD69), coculture with C1R.MR1; format: cell-based; details: SKW-3-DGB129 cocultured with C1R.MR1
Description: (§1) Given the intracellular MR1 retention induced by the RF catabolites, we anticipated that these ligands could influence the activity of MR1-reactive T cells. First, we utilized a system whereby reporter SKW-3 T cell lines were cocultured with C1R.MR1 APCs and activation was determined by CD69 expression. […] In contrast, SKW-3-MBV28 cells were inhibited by alloxazine but activated by lumichrome (Fig. S3, D–F). Two MR1-restricted TRAV1-2^−ve SKW-3 T cell lines were also tested.
(§2) C1R.MR1 cells (1 × 10^5) were initially stained with CTV (Thermo Fisher Scientific) for 15 min and then incubated with RF catabolites for 20 h. […] Cells were subsequently stained with PE-Cy7-conjugated anti-CD69 (1:100; BD Biosciences) and PE-labeled anti-MR1 (1:100, clone 26.5; BD Biosciences), before analysis on a LSRFortessa (BD Biosciences) flow cytometer. Activation of the SKW-3 cells was reflected by the cell surface CD69 expression.

[2] = tested on: SKW-3 cells expressing MAIT TCR MBV28; experiment: as above; format: cell-based
Description: as §1, §2

[3] = tested on: SKW-3-MAV36 line; experiment: as above; format: cell-based; details: SKW-3-MAV36, in the presence of 5-OP-RU
Description: as §1, §2

[4] = tested on: SKW-3 cells expressing MAIT TCR AF-7; experiment: as above; format: cell-based; details: for reactivity to 5-OP-RU (CD69): SKW-3-AF-7, in the presence of 1 nM 5-OP-RU; for reactivity to RL-7-Me (CD69): SKW-3-AF-7, in the presence of 100 nM RL-7-Me
Description: as §1, §2

[5] = tested on: T1, MR1^K43A on C1R.MR1^K43A cells; experiment: cell surface MR1^K43A by flow cytometry; format: cell-based, human
T1 construct: expressed in transfected cells; host or cells: C1R cells overexpressing MR1^K43A
Source text: (§3) We then tested the effect of the RF catabolites on the expression of two mutant versions of MR1 termed MR1^R9H ([Howson et al., 2020]) and MR1^K43A ([Reantragoon et al., 2013]). First, we tested the MR1^R9H mutant ([Howson et al., 2020]), which represents a rare, natural human polymorph. […] We used C1R.MR1^R9H cells, which are produced by stable transduction of wild-type C1R cells, which express low levels of wild-type MR1, with a vector expressing the MR1^R9H mutant ([Howson et al., 2020]). […] When C1R. […] Next, we sought to understand how the previously characterized K43A mutation affects ligand binding.
The level of MR1 expressed on the cell surface was measured after the exposure to the investigated ligands as previously described ([Awad et al., 2020a]; [Wang et al., 2022a]). C1R Ag-presenting B lymphocytes overexpressing MR1*01 (C1R.MR1), MR1^K43A mutant (C1R.MR1^K43A), MR1^R9H mutant (C1R.MR1^R9H), or HLA-A*02:01 (C1R-A2), in addition to the monocytic THP-1-MR1 cells, were used in this study. 2 × 10^5 cells were incubated with RF catabolites for 3 or 16 h at 37°C and 5% CO2 in 200 μl folate-free RPMI 1640 medium from Gibco (Cat. No. 11875-093) fortified with 10% fetal bovine serum, sodium pyruvate (1 mmol/L), HEPES buffer (15 mmol/L), pH 7.2–7.5, 2% penicillin (100 U/ml), streptomycin ([…]), GlutaMAX (2 mmol/L), nonessential amino acids (0.1 mmol/L) (all from Thermo Fisher Scientific, Life Technologies), and 2-mercaptoethanol ([…], Sigma-Aldrich) (RF-10). After incubation, the cells were first stained with Zombie Aqua Fixable Viability Kit from BioLegend (Cat. No. 423102) and then incubated with biotinylated 8F2F9 αMR1 antibody for 30 min on ice. The unbound antibody was then washed off with 2% fetal bovine serum/PBS (called 2% FACS hereafter) buffer. The cells were finally incubated with PE-conjugated streptavidin (30 μg/ml; BioLegend) and then washed with 2% FACS buffer. The PE fluorescence intensity reflects the surface MR1 level. The data were acquired with LSRFortessa X-20 (BD Biosciences) and Diva software (BD Biosciences) and analyzed using FlowJo software (BD Biosciences).

[6] = tested on: MAIT and TRAV1-2^−ve cells from PBMCs; experiment: TCR-independent or bead stimulation of PBMCs (PMA and ionomycin, αCD3/αCD28 beads); format: cell-based, human
[7] = tested on: CD3^+ MR1-5-OP-RU tetramer^+ MAIT cells; experiment: MAIT cell proliferation in CTV-labeled PBMCs; format: cell-based, human; details: 7-day culture, 5-OP-RU 10 µM, others 100 µM
[8] = tested on: T2, human MR1–β2-microglobulin (β2m) complex; experiment: refolding of recombinant MR1-β2m with ligand; format: binding; details: ligand added to refolding buffer; gel filtration and SDS-PAGE
T2 construct: plasmids encoding for the extracellular domains of MR1, β2m, and the AF-7 TCRα and TCRβ chains; made in house

[9] = target: T3, hMR1 protein (Homo sapiens, UniProt Q95460); experiment: fluorescence polarization–based cell-free assay, competition with JYM20 for MR1 binding; details: 50% inhibition of 10 nM JYM20 binding to 100 nM empty hMR1, 37°C; three independent experiments in triplicate
T3 construct: plasmids encoding for the extracellular domains of MR1, β2m, and the AF-7 TCRα and TCRβ chains; made in house; host or cells: Escherichia coli BL21(DE3)

[10] = tested on: T4, surface MR1*01 on C1R.MR1 cells; experiment: quantification of cell surface MR1 by flow cytometry, C1R.MR1 cells; format: cell-based, human; details: for MR1 cell surface expression: C1R.MR1 cells, 1–200 µM, 8F2F9 antibody
T4 construct: expressed in transfected cells; host or cells: C1R B lymphoblastoid cells transduced with MR1*01

[11] = tested on: Vγ9Vδ2 T cells; experiment: Vγ9Vδ2 T cell activation by zoledronate in PBMCs; format: cell-based, human; details: PBMCs titrated with ligand in the presence of zoledronate
[12] = tested on: soluble WT MR1; experiment: fluorescence-based thermal shift (thermostability) assay of MR1–ligand complexes; format: binding, human; details: MR1 refolded with the ligand; SYPRO Orange, 28 to 95°C; three independent experiments; listed as MR1-Lumichrome
[13] = tested on: T5, MR1 on PBMC-derived B lymphocytes; experiment: MR1 surface expression on primary B cells; format: cell-based; details: primary human B cells, 16 h, highest doses, with or without 5-OP-RU
T5 construct: we also measured MR1 on the surface of cells expressing wild-type levels of MR1; endogenous in cells; host or cells: PBMC-derived B lymphocytes from healthy human donors

[14] = tested on: T6, MR1^R9H; experiment: refolding of MR1^R9H with ligand in solution; format: binding, human
T6 construct: plasmids encoding for the extracellular domains of MR1, β2m, and the AF-7 TCRα and TCRβ chains; made in house
Source text: as §3
Escherichia coli BL21(DE3) cells were transformed with plasmids encoding for the extracellular domains of MR1, β2m, and the AF-7 TCRα and TCRβ chains ([Kjer-Nielsen et al., 2012]; [Patel et al., 2013]; [Wang et al., 2022a]). The proteins were then expressed, and the inclusion bodies were purified, cleaned, and used for refolding. For both MR1 and AF-7 TCR, inclusion bodies were refolded through rapid dilution overnight as previously mentioned ([Keller et al., 2017]). To refold MR1 with ligands, 58 mg MR1 inclusion bodies along with 30 mg of β2m inclusion bodies were placed in 500 ml of refold buffer consisting of 0.1 M Tris, pH 8.0, 5 M of urea, 2 mM EDTA, 2.5 mM oxidized glutathione, 20 mM reduced glutathione, and 0.4 M of L-arginine for 16 h at 4°C. […]

[15] = tested on: T7, folded MR1 in C1R.MR1 cells; experiment: intracellular total folded MR1 by flow cytometry (8F2.F9); format: cell-based, human; details: 16 h, 100 µM
T7 construct: expressed in transfected cells; host or cells: C1R B lymphoblastoid cells transduced with MR1*01

[16] = tested on: MAIT cells from PBMCs; experiment: primary MAIT cell activation in PBMCs (CD69, TNF); format: cell-based, human; details: 18 h, in the presence of 5-OP-RU or 5-A-RU
[17] = tested on: T8, MR1^R9H on C1R.MR1^R9H cells; experiment: cell surface MR1^R9H by flow cytometry; format: cell-based, human
T8 construct: expressed in transfected cells; host or cells: C1R cells stably transduced with MR1^R9H
Source text: as §3
The level of MR1 expressed on the cell surface was measured after the exposure to the investigated ligands as previously described ([Awad et al., 2020a]; [Wang et al., 2022a]). C1R Ag-presenting B lymphocytes overexpressing MR1*01 (C1R.MR1), MR1^K43A mutant (C1R.MR1^K43A), MR1^R9H mutant (C1R.MR1^R9H), or HLA-A*02:01 (C1R-A2), in addition to the monocytic THP-1-MR1 cells, were used in this study. […] The PE fluorescence intensity reflects the surface MR1 level. The data were acquired with LSRFortessa X-20 (BD Biosciences) and Diva software (BD Biosciences) and analyzed using FlowJo software (BD Biosciences).

[18] = tested on: T9, MR1 on THP-1.MR1 cells; experiment: competition with Ac-6-FP for MR1 upregulation, THP-1.MR1 cells; format: cell-based, human; details: 1–200 µM overnight, then 10 µM Ac-6-FP for 3 h
T9 construct: expressed in transfected cells; host or cells: THP-1 monocytic cells transduced with MR1

[19] = tested on: T10, MR1 on C1R.MR1 cells; experiment: competition with Ac-6-FP or 5-OP-RU for MR1 upregulation, C1R.MR1 cells; format: cell-based, human; details: 1–200 µM overnight
T10 construct: expressed in transfected cells; host or cells: C1R B lymphoblastoid cells transduced with MR1*01

[20] = tested on: T11, MR1 in C1R.MR1 cells; experiment: Endo H treatment and western blot of intracellular MR1; format: cell-based, human; details: 16 h, Ac-6-FP 10 μM, RF and catabolites 100 μM
T11 construct: expressed in transfected cells; host or cells: C1R B lymphoblastoid cells transduced with MR1*01
Description: The downregulation of MR1 on the cell surface by the RF catabolites could be due to the depletion of the intracellular ER-resident MR1 pool, or due to the retention of MR1 in the ER, as shown for the DB28 ligand ([Salio et al., 2020]). To investigate this, C1R.MR1 cells were treated for 16 h with 100 µM RF or RF catabolites, conditions that induce MR1 downregulation (Fig. 3 A). Cells were lysed, and treated with endoglycosidase (Endo) H, to distinguish molecules that remain within the ER from those that have trafficked to the cell surface ([McWilliam et al., 2016]), and then, MR1 levels were assessed by immunoblotting (Fig. 3 A).
C1R.MR1 cells were cultured with different RF catabolites for 16 h, at 37°C. Samples were then treated with or without Endo H for 1-h incubation at 37°C. Cells were lysed, and lysate protein concentration was quantified by BCA assay. Equal amounts of samples (40 µg total protein) were separated on SDS-PAGE gels before being transferred onto nitrocellulose membranes and incubated with primary (anti-MR1; clone 8G3) ([McWilliam et al., 2020]) then corresponding secondary antibody (IRDye 800CW anti-mouse IgG, Cat. No. 925-32210; LICORbio). The protein bands were visualized by the Li-Cor system.

T3 sequence (Q95460 23-302 limits assumed): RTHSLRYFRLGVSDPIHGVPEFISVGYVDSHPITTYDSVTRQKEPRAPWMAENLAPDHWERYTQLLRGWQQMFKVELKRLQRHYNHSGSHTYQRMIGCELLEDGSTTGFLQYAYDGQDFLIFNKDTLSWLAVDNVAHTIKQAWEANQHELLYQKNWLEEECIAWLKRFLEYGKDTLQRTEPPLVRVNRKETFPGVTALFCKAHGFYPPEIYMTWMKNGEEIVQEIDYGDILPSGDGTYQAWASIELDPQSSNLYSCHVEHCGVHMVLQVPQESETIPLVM
T3 sequence (P61769 21-119 partner): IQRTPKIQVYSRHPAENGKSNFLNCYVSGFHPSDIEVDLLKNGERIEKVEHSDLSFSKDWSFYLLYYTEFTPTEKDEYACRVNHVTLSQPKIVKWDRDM

Cc1cc2nc3[nH]c(=O)[nH]c(=O)c3nc2cc1C [Lumichrome, 7,8-dimethylalloxazine]
reactivity of MR1 autoreactive, nucleobase-adduct reactive line (CD69) [1]: inhibited
reactivity to 5-OP-RU (CD69) ([2]; SKW-3-MBV28, in the presence of 5-OP-RU): activated
reactivity to 5-OP-RU (CD69) [3]: inhibited
reactivity to 5-OP-RU (CD69) [4]: enhanced activation
reactivity to RL-7-Me (CD69) [4]: inhibited in a dose-dependent manner
MR1^K43A at the cell surface ([5]; 3 h): increased MR1^K43A at the cell surface
MR1^K43A at the cell surface ([5]; 16 h): MR1 upregulation continues
CD69 upregulation by MAIT or TRAV1-2^−ve cells ([6]; PBMCs preincubated, then αCD3- and αCD28-coated beads): not reduced
MAIT cell proliferation [7]: significantly reduced MAIT cell proliferation
folding of the MR1-β2m cocomplex in solution [8]: facilitated the correct folding of the MR1-β2m cocomplex
IC50 [9]: 12.5 µM
MR1 cell surface expression ([10]; 3 h): reduced MR1 cell surface
rank as downregulator of MR1 cell surface expression ([10]; overall: lumichrome, then alloxazine, lumiflavin, FMF): most potent downregulator
Vγ9Vδ2 T cell activation induced by zoledronate (% CD69^+ Vδ2^+) [11]: did not interfere
Tm50 (half-maximum melting temperature), Mean ± SD [12]: 49.89 ± 0.33 °C
MR1 surface expression [13]: reduced MR1 surface expression
refolding with MR1^R9H [14]: did not refold with MR1^R9H in solution; also recorded: unable to refold
total level of folded MR1 (intracellular staining with 8F2.F9) [15]: increased the total level of folded MR1
MAIT cell inhibition (CD69 MFI, % CD69^+, TNF production) [16]: most potent competitor showing the strongest MAIT cell inhibition

Cc1cc2nc3c(=O)[nH]c(=O)nc-3n(C[C@H](O)[C@H](O)[C@H](O)CO)c2cc1C [RF, riboflavin]
activation (CD69 expression), ligand alone ([2]; SKW-3 MBV28 cocultured with C1R.MR1, no agonist): not activated
reactivity to 5-OP-RU (CD69) [4]: not altered
reactivity to RL-7-Me (CD69) [4]: activation was enhanced
activation (CD69 expression), ligand alone ([4]; SKW-3 AF-7 cocultured with C1R.MR1, no agonist): not activated
MR1^R9H surface level [17]: did not deviate from the background level
MR1^K43A at the cell surface ([5]; 16 h): MR1 upregulation continues
block of CD69 upregulation and TNF production ([6]; PBMCs preincubated 16 h, then PMA and ionomycin, MAIT or non-MAIT TRAV1-2^−ve cells): neither RF nor RF catabolites could block
effect on Ac-6-FP–induced cell surface upregulation of MR1 [18]: did not modulate
folding of the MR1-β2m cocomplex in solution [8]: did not sponsor refolding of MR1
effect on Ac-6-FP–induced cell surface upregulation of MR1 ([19]; then 10 µM Ac-6-FP for 3 h): did not modulate
effect on 5-OP-RU–induced cell surface upregulation of MR1 ([19]; then 5-OP-RU for 3 h): did not modulate
IC50 [9]: 182 µM
MR1 cell surface expression ([10]; 3 h): did not alter MR1 expression from the baseline
MR1 cell surface expression ([10]; 16 h): modestly upregulated MR1; also recorded: modest increase
Endo H–resistant MR1 [20]: Neither RF nor its catabolites induced any Endo H–resistant MR1
